The values below are quoted from earlier work in patent US12303506B2, “Trabectedin composition” (EXTROVIS AG, priority 2022, dated 2025).

The conditions of this data set: background statement.

For `COc1cc2c(cc1O)CCN[C@]21CS[C@@H]2c3c(OC(C)=O)c(C)c4c(c3[C@H](COC1=O)N1[C@@H]2[C@H]2c3c(cc(C)c(OC)c3O)C[C@@H]([C@@H]1O)N2C)OCO4` [Trabectedin, (1′R,6R,6aR,7R,13S,14S,16R)-5(acetyloxy)-3′,4′,6,6a,7,13,14,16-octahydro-6′,8,14-trihydroxy-7′,9-dimethoxy-4,10,23 trimethylspiro[6,16-(epithiopropanoxymethano)-7,13-imino-12H-1,3dioxolo[7,8]isoquino[3,2b][3]benzazocine-20,1′(2′H)-isoquinolin]-19-one], the aqueous solubility entry is on record as “limited aqueous solubility”.
